Source: patent US8378059B2, “Supramolecular handcuffs in polymeric architecture” (Cambridge Enterprise Ltd., priority 2007, dated 2013)

Tests used:
[1] = solubility of hydrophobic guest in water, observed by 1H NMR; format: physicochemical
[2] = aqueous environment; cited from earlier work
[3] = Hwang et al. J. Am. Chem. Soc. 2007; cited from earlier work

Molecule: CCCCCCCCCCCCCCCCCC[n+]1ccc(-c2cc[n+](C)cc2)cc1 [Viologen 3, Octadecyl methyl viologen]
- change in solubility in water ([1]; addition of CB[8] to a solution of Np-PEG5k and 3): increase in solubility
- water solubility ([1]; guest alone): only sparingly water-soluble

Molecule: Cucurbit[8]uril
- association constants (Ka), simultaneous binding of two organic guest molecules [2]: ≈ 10^11 M^−2

Molecule: cucurbit[7]uril [CB[7]]
- Ka, 1:1 complex with ferrocene derivatives [3]: ≈ 10^12 M^−1
